Results taken from PubChem BioAssay (NCI).
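Dose response: 5 concentrations. Exposure: 48 h. Format: 96-well plates. Endpoint: linear interpolation; highest concentration if not reached. TGI marks complete inhibition of growth.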

Columns and labels:
Assay in all cases: growth of human tumour cells (NCI), 48 h
[1] = system: CCRF-CEM leukemia
[2] = system: NCI-H23 lung
[3] = system: HCT-116 colon
[4] = system: BT-549 breast
[5] = system: COLO 205 colon
[6] = system: OVCAR-5 ovarian
[7] = system: T-47D breast
[8] = system: OVCAR-8 ovarian
[9] = system: PC-3 prostate
[10] = system: HCC-2998 colon
[11] = system: SF-539 CNS
[12] = system: ACHN renal
[13] = system: SK-MEL-2 melanoma
[14] = system: CAKI-1 renal
[15] = system: HS 578T breast
[16] = system: A498 renal
[17] = system: A549 NSCLC
[18] = system: LOX IMVI melanoma
[19] = system: HL-60(TB) leukemia
[20] = system: MALME-3M melanoma
[21] = system: MDA-MB-435
[22] = system: SK-OV-3 ovarian
[23] = system: OVCAR-4 ovarian
[24] = system: HOP-62 NSCLC
[25] = system: TK-10 renal
[26] = system: SK-MEL-28 melanoma
[27] = system: NCI-H226 lung
[28] = system: SF-295 CNS
[29] = system: NCI-H460 lung
[30] = system: MDA-MB-231 breast
[31] = system: KM12 colon
[32] = system: M14 melanoma
[33] = system: UACC-257 melanoma
[34] = system: SW-620 colon
[35] = system: SF-268 CNS
[36] = system: MOLT-4 leukemia
[37] = system: RPMI-8226 leukemia
[38] = system: K-562 leukemia
[39] = system: UACC-62 melanoma
[40] = system: 786-0 renal
[41] = system: NCI/ADR-RES ovarian
[42] = system: DU-145 prostate
[43] = system: HCT-15 colon
[44] = system: U251 CNS
[45] = system: SN12C renal
[46] = system: SNB-19 CNS
[47] = system: MCF7 breast
[48] = system: UO-31 renal
[49] = system: SK-MEL-5 melanoma
[50] = system: HOP-92 NSCLC
[51] = system: EKVX NSCLC
[52] = system: MDA-N
[53] = system: SNB-75 CNS
[54] = system: RXF 393 renal
[55] = system: HT29 colon
[56] = system: OVCAR-3 ovarian
[57] = system: IGROV1 ovarian
[58] = system: NCI-H522 lung

Structure (SMILES): Nc1ncnc2c1ncn2C(=O)NC12CC3CC(CC(C3)C1)C2
- TGI [1]: > 100 µM
- TGI [2]: > 100 µM
- TGI [3]: > 100 µM
- TGI [4]: > 100 µM
- TGI [5]: > 100 µM
- TGI [6]: > 100 µM
- TGI [7]: > 100 µM
- TGI [8]: > 100 µM
- TGI [9]: > 100 µM
- TGI [10]: > 100 µM
- TGI [11]: > 100 µM
- TGI [12]: > 100 µM
- TGI [13]: > 100 µM
- TGI [14]: > 100 µM
- TGI [15]: > 100 µM
- TGI [16]: > 100 µM
- TGI [17]: > 100 µM
- TGI [18]: > 100 µM
- TGI [19]: > 100 µM
- TGI [20]: > 100 µM
- TGI [21]: > 100 µM
- TGI [22]: > 100 µM
- TGI [23]: > 100 µM
- TGI [24]: > 100 µM
- TGI [25]: > 100 µM
- TGI [26]: > 100 µM
- TGI [27]: > 100 µM
- TGI [28]: > 100 µM
- TGI [29]: > 100 µM
- TGI [30]: > 100 µM
- TGI [31]: > 100 µM
- TGI [32]: > 100 µM
- TGI [33]: > 100 µM
- TGI [34]: > 100 µM
- TGI [35]: > 100 µM
- TGI [36]: > 100 µM
- TGI [37]: > 100 µM
- TGI [38]: > 100 µM
- TGI [39]: > 100 µM
- TGI [40]: > 100 µM
- TGI [41]: > 100 µM
- TGI [42]: > 100 µM
- TGI [43]: > 100 µM
- TGI [44]: > 100 µM
- TGI [45]: > 100 µM
- TGI [46]: > 100 µM
- TGI [47]: > 100 µM
- TGI [48]: > 100 µM
- TGI [49]: > 100 µM
- TGI [50]: > 100 µM
- TGI [51]: > 100 µM
- TGI [52]: > 100 µM
- TGI [53]: > 100 µM
- TGI [54]: > 100 µM
- TGI [55]: > 100 µM
- TGI [56]: > 100 µM

Structure (SMILES): Cc1ccc(C2=Nc3c(c(C)nn3-c3ccccc3)N=C(C(=O)O)C2)cc1
- TGI [1]: > 10 µM
- TGI [2]: > 10 µM
- TGI [3]: > 10 µM
- TGI [4]: > 10 µM
- TGI [5]: > 10 µM
- TGI [6]: > 10 µM
- TGI [7]: > 10 µM
- TGI [8]: > 10 µM
- TGI [9]: > 10 µM
- TGI [10]: > 10 µM
- TGI [11]: > 10 µM
- TGI [12]: > 10 µM
- TGI [13]: > 10 µM
- TGI [14]: > 10 µM
- TGI [15]: > 10 µM
- TGI [16]: > 10 µM
- TGI [17]: > 10 µM
- TGI [18]: > 10 µM
- TGI [19]: > 10 µM
- TGI [20]: > 10 µM
- TGI [57]: > 10 µM
- TGI [21]: > 10 µM
- TGI [22]: > 10 µM
- TGI [23]: > 10 µM
- TGI [24]: > 10 µM
- TGI [25]: > 10 µM
- TGI [26]: > 10 µM
- TGI [27]: > 10 µM
- TGI [28]: > 10 µM
- TGI [29]: > 10 µM
- TGI [30]: > 10 µM
- TGI [31]: > 10 µM
- TGI [32]: > 10 µM
- TGI [33]: > 10 µM
- TGI [34]: > 10 µM
- TGI [35]: > 10 µM
- TGI [36]: > 10 µM
- TGI [58]: > 10 µM
- TGI [38]: > 10 µM
- TGI [39]: > 10 µM
- TGI [40]: > 10 µM
- TGI [41]: > 10 µM
- TGI [42]: > 10 µM
- TGI [43]: > 10 µM
- TGI [44]: > 10 µM
- TGI [45]: > 10 µM
- TGI [46]: > 10 µM
- TGI [47]: > 10 µM
- TGI [48]: > 10 µM
- TGI [49]: > 10 µM
- TGI [50]: > 10 µM
- TGI [51]: > 10 µM
- TGI [52]: > 10 µM
- TGI [53]: > 10 µM
- TGI [54]: > 10 µM
- TGI [55]: > 10 µM
- TGI [56]: > 10 µM
